Holding throughout (format): functional
Test [1] concerns Staphylococcus aureus. Briefly: Antibacterial activity against methicillin-resistant Staphylococcus aureus 2658 RCMB after 20 hrs by broth microdilution assay.
The subject of test [2] is Staphylococcus aureus. Briefly: Antibacterial activity against vancomycin-resistant Staphylococcus aureus VRSA10 after 20 hrs by broth microdilution assay. To be noted: VRSA10, 20 h.
For test [3], the system named is Enterococcus faecium. Description: Bactericidal activity against vancomycin-resistant Enterococcus faecium ATCC 700221 incubated for 20 hrs followed by re-plating on tryptic soy agar plates at 37 degC for 18 hrs by broth microdilution assay. In general terms: Dilution methods test growth across graded concentrations, often in twofold steps.
Test [4] relates to Staphylococcus aureus. Briefly: Antibacterial activity against methicillin-resistant Staphylococcus aureus NRS385 after 20 hrs by broth microdilution assay. To be noted: NRS385, 20 h.
Test [5] has as its system Enterococcus faecalis. Description: Bactericidal activity against vancomycin-resistant Enterococcus faecalis ATCC 51299 incubated for 20 hrs followed by re-plating on tryptic soy agar plates at 37 degC for 18 hrs by broth microdilution assay.
The subject of test [6] is Staphylococcus aureus. Briefly: Bactericidal activity against Staphylococcus aureus USA400 NRS123 incubated for 20 hrs followed by re-plating on tryptic soy agar plates at 37 degC for 18 hrs by broth microdilution assay.
Test [7] deals with Staphylococcus aureus. Description: Bactericidal activity against Staphylococcus aureus USA300 NRS384 incubated for 20 hrs followed by re-plating on tryptic soy agar plates at 37 degC for 18 hrs by broth microdilution assay.
Test [8] has as its system Staphylococcus aureus. Briefly: Antibacterial activity against Staphylococcus aureus after 20 hrs by broth microdilution assay.
The subject of test [9] is Staphylococcus epidermidis. Briefly: Bactericidal activity against methicillin-resistant Staphylococcus epidermidis NRS101 incubated for 20 hrs followed by re-plating on tryptic soy agar plates at 37 degC for 18 hrs by broth microdilution assay.
The test system of test [10] is Enterococcus faecium. Description: Antibacterial activity against vancomycin-resistant Enterococcus faecium ATCC 700221 after 20 hrs by broth microdilution assay. The conditions noted are these: ATCC 700221, 20 h.
The subject of test [11] is Staphylococcus epidermidis. Description: Antibacterial activity against methicillin-resistant Staphylococcus epidermidis NRS101 after 20 hrs by broth microdilution assay. To be noted: NRS101, 20 h.
For test [12], the system named is Streptococcus pneumoniae. Briefly: Bactericidal activity against methicillin-resistant Streptococcus pneumoniae ATCC 700677 incubated for 20 hrs followed by re-plating on tryptic soy agar plates at 37 degC for 18 hrs by broth microdilution assay.
Test [13] relates to Staphylococcus aureus. Briefly: Antibacterial activity against methicillin-resistant Staphylococcus aureus after 20 hrs by broth microdilution assay.
The subject of test [14] is Staphylococcus aureus. Description: Bactericidal activity against linezolid-resistant Staphylococcus aureus NRS119 incubated for 20 hrs followed by re-plating on tryptic soy agar plates at 37 degC for 18 hrs by broth microdilution assay.
The test system of test [15] is Staphylococcus aureus. Briefly: Bactericidal activity against vancomycin-resistant Staphylococcus aureus VRSA12 incubated for 20 hrs followed by re-plating on tryptic soy agar plates at 37 degC for 18 hrs by broth microdilution assay.
For test [16], the system named is Streptococcus pneumoniae. Description: Bactericidal activity against cephalosporin-resistant Streptococcus pneumoniae ATCC 51916 incubated for 20 hrs followed by re-plating on tryptic soy agar plates at 37 degC for 18 hrs by broth microdilution assay.
The test system of test [17] is Staphylococcus aureus. Briefly: Antibacterial activity against vancomycin-resistant Staphylococcus aureus VRSA12 after 20 hrs by broth microdilution assay. To be noted: VRSA12, 20 h.
The subject of test [18] is Staphylococcus aureus. Description: Bactericidal activity against methicillin-resistant Staphylococcus aureus NRS386 incubated for 20 hrs followed by re-plating on tryptic soy agar plates at 37 degC for 18 hrs by broth microdilution assay.
In test [19] the test system is Staphylococcus aureus. Briefly: Bactericidal activity against methicillin-resistant Staphylococcus aureus NRS385 incubated for 20 hrs followed by re-plating on tryptic soy agar plates at 37 degC for 18 hrs by broth microdilution assay.
The test system of test [20] is Enterococcus faecalis. Briefly: Antibacterial activity against vancomycin-resistant Enterococcus faecalis ATCC 51299 after 20 hrs by broth microdilution assay. The conditions noted are these: ATCC 51299, 20 h.
Test [21] deals with Staphylococcus aureus. Description: Bactericidal activity against vancomycin-resistant Staphylococcus aureus VRSA10 incubated for 20 hrs followed by re-plating on tryptic soy agar plates at 37 degC for 18 hrs by broth microdilution assay.
For test [22], the system named is Streptococcus pneumoniae. Description: Antibacterial activity against cephalosporin-resistant Streptococcus pneumoniae ATCC 51916 after 20 hrs by broth microdilution assay. The conditions noted are these: ATCC 51916, 20 h.
In test [23] the test system is Staphylococcus aureus. Briefly: Bactericidal activity against methicillin-sensitive Staphylococcus aureus NRS107 incubated for 20 hrs followed by re-plating on tryptic soy agar plates at 37 degC for 18 hrs by broth microdilution assay.
In test [24] the test system is Streptococcus pneumoniae. Briefly: Antibacterial activity against methicillin-resistant Streptococcus pneumoniae ATCC 700677 after 20 hrs by broth microdilution assay. To be noted: ATCC 700677, 20 h.
The test system of test [25] is Staphylococcus aureus. Briefly: Antibacterial activity against methicillin-resistant Staphylococcus aureus NRS386 after 20 hrs by broth microdilution assay. The conditions noted are these: NRS386, 20 h.
The subject of test [26] is Listeria monocytogenes. Briefly: Bactericidal activity against Listeria monocytogenes ATCC 19111 incubated for 20 hrs followed by re-plating on tryptic soy agar plates at 37 degC for 18 hrs by broth microdilution assay.
Test [27] relates to Listeria monocytogenes. Briefly: Antibacterial activity against Listeria monocytogenes ATCC 19111 after 20 hrs by broth microdilution assay. The conditions noted are these: ATCC 19111, 20 h.

By MIC is commonly meant the lowest concentration found to suppress growth. A lower MIC goes with greater potency. In general, MBC refers to the lowest tested concentration that kills the bacteria rather than only halting them.

≈ marks a conversion by molar mass, not a printed value.

In test [1], `CCCCCCCOc1ccc(-c2nc(C)c(-c3ccnc(NC(=N)N)n3)s2)cc1` yielded a minimum inhibitory concentration (MIC) of 1.56 µg/mL (≈ 3.67 µM).

`CCCCCCCCOc1ccc(-c2nc(C)c(-c3ccnc(NC(=N)NC)n3)s2)cc1`: in test [1], the MIC is above 50 µg/mL.

On to `CCCCCCCOc1ccc(-c2nc(C)c(-c3ccnc(NN)n3)s2)cc1`, for which the minimum inhibitory concentration (MIC) in test [2] was found to be 64 µg/mL (≈ 161 µM); in [4], 32 µg/mL (≈ 80.5 µM); in test [8] it was 16 µg/mL (≈ 40.2 µM); in test [10], 64 µg/mL (≈ 161 µM); in [11], 64 µg/mL (≈ 161 µM); in test [13] it was 32 µg/mL (≈ 80.5 µM). The minimum inhibitory concentration (MIC) in [17] was 64 µg/mL (≈ 161 µM); in [1], 3.12 µg/mL (≈ 7.85 µM); in test [20] it was above 64 µg/mL; in [22] it was above 64 µg/mL; in test [24] it was above 64 µg/mL; in [25] it was 32 µg/mL (≈ 80.5 µM). In [27], this compound gave a minimum inhibitory concentration (MIC) of 16 µg/mL (≈ 40.2 µM). The minimal bactericidal concentration (MBC) in test [3] was above 64 µg/mL; in test [5], above 64 µg/mL; in test [6] it was above 64 µg/mL; in test [7] it was above 64 µg/mL; in [9], 64 µg/mL (≈ 161 µM); in test [12], above 64 µg/mL. For the same compound, the MBC in test [14] was 64 µg/mL (≈ 161 µM); in [15], above 64 µg/mL; in test [16], above 64 µg/mL; in [18] it was above 64 µg/mL; in test [19], 64 µg/mL (≈ 161 µM); in [21], above 64 µg/mL. In addition, the MBC in [23] and in [26] was above 64 µg/mL throughout.

`CCCCCCCOc1ccc(-c2nc(C)c(-c3ccnc(NC(=N)N4CCOCC4)n3)s2)cc1`: the lowest concentration to inhibit growth in test [1] (MIC) was 6.25 µg/mL (≈ 12.6 µM).

Compound `CCCCCCCOc1ccc(-c2nc(C)c(-c3ccnc(NC(=N)NC)n3)s2)cc1` returned a minimum inhibitory concentration (MIC) in [1] above 50 µg/mL.

`CCCCCCCOc1ccc(-c2nc(C)c(-c3ccnc(NN4CCOCC4)n3)s2)cc1`: inhibition of growth in test [1] (MIC) required 25 µg/mL (≈ 53.5 µM).

With `CN[C@H](CC(C)C)C(=O)N[C@H]1C(=O)N[C@@H](CC(N)=O)C(=O)N[C@H]2C(=O)N[C@H]3C(=O)N[C@H](C(=O)N[C@H](C(=O)O)c4cc(O)cc(O)c4-c4cc3ccc4O)[C@H](O)c3ccc(c(Cl)c3)Oc3cc2cc(c3O[C@@H]2O[C@H](CO)[C@@H](O)[C@H](O)[C@H]2O[C@H]2C[C@](C)(N)[C@H](O)[C@H](C)O2)Oc2ccc(cc2Cl)[C@H]1O` [VANCOMYCIN], the MIC is above 64 µg/mL in test [2]; above 64 µg/mL in test [10]; above 64 µg/mL in test [17]; 1.56 µg/mL (≈ 1.08 µM) in [1]; 16 µg/mL (≈ 11 µM) in test [20]; 2 µg/mL (≈ 1.38 µM) in test [22]. The figures for the minimum inhibitory concentration (MIC) in [24] and in test [27] were 2 µg/mL (≈ 1.38 µM) and 1 µg/mL (≈ 0.69 µM), respectively. Further, the minimal bactericidal concentration (MBC) in test [3] is above 64 µg/mL; in [5], 64 µg/mL (≈ 44.2 µM); in test [6] it was 1 µg/mL (≈ 0.69 µM); in test [7], 1 µg/mL (≈ 0.69 µM); in test [14], 1 µg/mL (≈ 0.69 µM); in test [15] it was above 64 µg/mL. The MBC in test [18] was 1 µg/mL (≈ 0.69 µM); in [19] it was 1 µg/mL (≈ 0.69 µM); in test [21] it was above 64 µg/mL; in test [23], 2 µg/mL (≈ 1.38 µM).

Regarding `CCCCCCCOc1ccc(-c2nc(C)c(-c3ccnc(NC)n3)s2)cc1`, in test [1], the minimal inhibitory concentration (MIC) was above 50 µg/mL.

As to `CCCCCCCCOc1ccc(-c2nc(C)c(-c3ccnc(NC(=N)N)n3)s2)cc1`, the MIC in test [1] worked out at 1.56 µg/mL (≈ 3.56 µM).

These data come from ChEMBL document CHEMBL4152249, “Alkoxyphenylthiazoles with broad-spectrum activity against multidrug-resistant gram-positive bacterial pathogens” (Eur J Med Chem, 2018).
